Measured values as given in patent publication US20230107216A1, “PANTETHEINE DERIVATIVES AND USES THEREOF” (Comet Therapeutics, Inc., priority 2018, published 2023).
Read-outs that look alike come from different tables or passages of the source.

Experiments:
[1] = system: monocyte-derived M1 macrophages; test: M1 differentiation assay (macrophage TNFα, IL6, IL10 ELISA, FACS); assay type: cell-based, human; details: for activation at 10 µM: read-out: % Increase in IL-10 Secretion
How it was run: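 CD14+ human blood monocytes (100,000) differentiated 6 days with 10 ng/ml GM-CSF plus compound at 10 or 50 μM, refreshed days 2 and 4. Matured 24 h with GM-CSF, IFNγ, LPS plus compound. Supernatant TNFα, IL6, IL10 by ELISA; FACS M1 phenotype CD86+CD68+CD163−.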

[2] = system: Very long-chain acyl-CoA dehydrogenase (VLCAD) primary fibroblasts GM17475; test: Total NAD+ + NADH and NAD+ (NAD/NADH-Glo), VLCAD fibroblasts GM17475; assay type: cell-based; details: Homo sapiens, Fibroblast, VLCAD GM17475 P10, assay condition A, 24h, read-out: Increase in Total NAD+ + NADH
Experimental: Primary adherent fibroblasts were cultured in minimum essential medium (MEM) (Gibco, 25030081) supplemented with 2 mM L-Glutamine (Gibco, 25030081), 15% fetal bovine serum (FBS) (Gibco, 26400044) and 1% penicillin/streptomycin (Gibco, 5140122) at 37° C. and 5% CO2. Cells were collected for either passaging or experiment at ˜70-80% confluence. Cells were obtained by trypsinization and seeded in cell culture microplates either white plate (Thermo Fisher Scientific, 152028) for luminescent measurement or black plate (Thermo Fisher Scientific, 165305) for fluorescent based read out for different assays listed below. Cells were obtained by trypsinization and […] were seeded and allowed to adhere for 16-18 hours to have confluency around 70-80% in the cell well with culture media. After 24 hours prior to measurements (37° C., 5% CO2) media was changed to Dulbecco's Modified Eagle Medium (DMEM, Agilent Seahorse cat #103575-100) with the appropriate supplements as stated below.
Primary fibroblasts assayed were Propionic Acidemia (PA) (GM03590 Coriell Institute for Medical Research, Tsi 6337 Trans-Hit Bio), Methylmalonic Acidemia (MMA) (Tsi 5224 Trans-Hit Bio), Subnormal activation of pyruvate dehydrogenase complex (PDH) (GM01503 Coriell Institute for Medical Research), Very long-chain acyl-CoA dehydrogenase (VLCAD) (GM17475), Leigh Syndrome (LS) (GM03672, GM13411 Coriell Institute for Medical Research), Pyruvate Carboxylase Deficiency (PC) (GM00444 Coriell Institute for Medical Research). 10 μM of Compounds were added for 2 hours in PA, MMA lines and for 24h for the other fibroblast lines.
Assay was performed according to manufacturer instructions (NAD/NADH-Glo Assay Promega, G9072). The NAD/NADH-Glo Assay is a bioluminescent assay for detecting total oxidized and reduced nicotinamide adenine dinucleotides (NAD+ and NADH, respectively) from which ratio of NAD/NADH can be calculated. Briefly, for every assay a 12-point standard curve was prepared ranging from 400 nM to 0.625 nM. Media was removed and replaced with 50 μl of PBS for both assays.
For individual NAD+ and NADH measurement, 50 μl of 1% DTAB (Sigma Cat #D5047) (cell lysis reagent) in 0.2N NaOH was added to the plate and a total 100 μl of lysate was split into two plates with 50 μl each. 25 μl of 0.4N HCl were added to the NAD+ plate and both NAD+ and NADH plate were heated at 60° C. for 15 minutes. The acid and heat treatment destroyed NADH allowing individual NAD+ measurement while heating in basic conditions destroys NAD+ allowed individual NADH measurements. The plates were allowed to come to room temperature for 10 minutes and Trizma base (Sigma, T1699) was added to the NAD+ plate to neutralize the acid and HCl Trizma hydrochloride (Sigma, T2694) was added to the NADH plate. The NADNADH glo reagent was prepared by adding: 625 μl of NAD cycling substrate, 125 μl of reductase, 125 μl of reductase substrate, 125 μl NAD cycling enzyme to total of the 25 ml of NAD GLO reagent. 1:1 ratio of total volume of reagent was added to the individual NAD+, NADH measurement (total 100 μl) and 50 μl for total NAD/NAH measurement. Luminescence was read between 30-60 minutes within the linear range.
A total dead cell count was performed as described in Example 817 and only alive cells were used for analysis.

HepG2 cells = test: Glucose uptake (Glucose Uptake-Glo); assay type: cell-based; details: Homo sapiens, read-out: % increase in Glucose Uptake
[3] = system: Propionic Acidemia (PA) primary fibroblasts GM00371; test: Mitochondrial respiration, XFe96 Extracellular Flux Analyzer (OCR/ECAR), PA fibroblasts GM00371; assay type: cell-based; details: Homo sapiens, Fibroblast
[4] = Homo sapiens, Macrophage, 10 uM
[5] = Homo sapiens, Macrophage, 10 uM, read-out: % decrease in Macrophage IL-6 Secretion
[6] = Homo sapiens, Macrophage, 10 uM, read-out: % decrease in Macrophage TNFα Secretion
[7] = assay condition D (1 mM glucose, 10% FBS), read-out: Increase in Maximal Respiratory Capacity AUC
[8] = assay condition C (10 mM glucose, 10% FBS), read-out: Increase in Maximal Respiratory Capacity AUC
[9] = assay condition A (10 mM glucose, 2 mM L-glutamine, 1 mM pyruvate, 10% FBS), read-out: Increase in Spare Capacity AUC

Row | SMILES | activation at 10 µM [1, 4] [%] | inhibition at 10 µM [1, 6] [%] | activation at 10 µM [2] [%] | activation at 50 µM (HepG2 cells) [%] | further results
1 | CC[C@@H](O)CC(=O)SCCNC(=O)CCNC(=O)[C@H](O)C(C)(C)CO [Compound 1245, (2R)-2,4-dihydroxy-N-{2-[(2-{[(3R)-3-hydroxypentanoyl]sulfanyl}ethyl)carbamoyl]ethyl}-3,3-dimethylbutanamide] | ≥ 30 | ≥ 30 | ≥ 10 |  | inhibition at 10 µM [1, 5]: ≥ 30%
2 | CC(C)(CO)[C@@H](O)C(=O)NCCC(=O)NCCSC(=O)CC(=O)CCC(=O)O [Compound 2, 6-[(2-[3-[(2R)-2,4-dihydroxy-3,3-dimethylbutanamido]propanamido]ethyl)sulfanyl]-4,6-dioxohexanoic acid] |  |  | ≥ 10 |  | activation at 10 µM (HepG2 cells): ≥ 10%; activation at 50 µM [3, 7]: ≥ 10%
3 | CC(=O)OCC(C)(C)[C@@H](O)C(=O)NCCC(=O)NCCSC(=O)CC(=O)CCC(=O)O [Compound 140, 6-[(2-[3-[(2R)-4-(acetyloxy)-2-hydroxy-3,3-dimethylbutanamido]propanamido]ethyl)sulfanyl]-4,6-dioxohexanoic acid] |  |  | ≥ 10 |  | activation at 50 µM [3, 8]: ≥ 10%
4 | COC(=O)CC(C(C)=O)C(=O)SCCNC(=O)CCNC(=O)[C@H](O)C(C)(C)CO (stereo partly drawn) [Compound 410] |  |  | ≥ 10 | ≥ 30 | activation at 50 µM [3, 7]: ≥ 10%
5 | CC(O)CC(O)CC(=O)SCCNC(=O)CCNC(=O)[C@H](O)C(C)(C)CO (stereo partly drawn) [Compound 400] | ≥ 30 |  | ≥ 10 |  | inhibition at 50 µM ([1]; Homo sapiens, Macrophage, 50 uM, read-out: % decrease in Macrophage TNFα Secretion): ≥ 30%
6 | CC(O)CC(O)CC(O)CC(=O)SCCNC(=O)CCNC(=O)[C@H](O)C(C)(C)CO (stereo partly drawn) [Compound 401] |  | ≥ 30 | ≥ 10 |  | % decrease in Live Macrophage Cells ([1]; 50 uM): ≥20%
7 | C[C@@H](O)CC(=O)CC(=O)SCCNC(=O)CCNC(=O)[C@H](O)C(C)(C)CO [Compound 42, (2R)-2,4-dihydroxy-N-[2-[(2-[[(5R)-5-hydroxy-3-oxohexanoyl]sulfanyl]ethyl)carbamoyl]ethyl]-3,3-dimethylbutanamide] |  |  | ≥ 10 |  | 
8 | C[C@@H](O)CC(=O)SCCNC(=O)CCNC(=O)[C@H](O)C(C)(C)CO [Compound 38, S-2-{3-[(R)-2,4-dihydroxy-3,3-dimethylbutyrylamino]propionylamino} ethyl (R)-3-hydroxybutanethioate] | ≥ 30 | ≥ 30 | ≥ 10 |  | % Increase in Live Macrophage Cells ([1]; 50 uM): ≥20%; inhibition at 10 µM [1, 5]: ≥ 30%
9 | CC(O)C(C(=O)SCCNC(=O)CCNC(=O)[C@H](O)C(C)(C)CO)C(C)O (stereo partly drawn) [Compound 1285, (2R)-2,4-dihydroxy-N-[2-[(2-[[3-hydroxy-2-(1-hydroxyethyl)butanoyl]sulfanyl]ethyl)carbamoyl]ethyl]-3,3-dimethylbutanamide] |  |  | ≥ 10 |  | activation at 10 µM (HepG2 cells): ≥ 30%; activation at 50 µM [3, 8]: ≥ 10%
10 | CC(=O)SCCNC(=O)CCNC(=O)[C@H](O)C(C)(C)COC(=O)CCC(=O)O [Compound 1242, (R)-12-hydroxy-13,13-dimethyl-2,7,11,16-tetraoxo-15-oxa-3-thia-6,10-diazanonadecan-19-oic acid] | ≥ 30 | ≥ 30 | ≥ 10 |  | % decrease in Live Macrophage Cells ([1]; 10 uM): ≥20%; inhibition at 10 µM [1, 5]: ≥ 30%
11 | CCC(=O)CC(=O)SCCNC(=O)CCNC(=O)[C@H](O)C(C)(C)CO [Compound 382, (2R)-2,4-dihydroxy-3,3-dimethyl-N-[2-([2-[(3-oxopentanoyl)sulfanyl]ethyl]carbamoyl)ethyl]butanamide] |  |  | ≥ 10 | ≥ 30 | activation at 10 µM [3, 7]: ≥ 10%
12 | COC(=O)CCC(=O)SCCNC(=O)CCNC(=O)[C@H](OC(=O)CNC(C)=O)C(C)(C)CO [Compound 1298, methyl 4-[(2-[3-[(2R)-2-[(2-acetamidoacetyl)oxy]-4-hydroxy-3,3-dimethylbutanamido]propanamido]ethyl)sulfanyl]-4-oxobutanoate] |  |  |  | ≥ 20 | activation at 10 µM [3, 9]: ≥ 30%; activation at 50 µM [3, 9]: ≥ 50%; activation at 10 µM ([3]; assay condition D (1 mM glucose, 10% FBS), read-out: Increase in Spare Capacity AUC): ≥ 30%; activation at 50 µM [3, 7]: ≥ 10%
13 | CC(=O)OCC(C)(C)[C@@H](OC(C)=O)C(=O)NCCC(=O)NCCSC(C)=O [Compound 1264, (1R)-3-(acetyloxy)-1-[(2-[[2-(acetylsulfanyl)ethyl]carbamoyl]ethyl)carbamoyl]-2,2-dimethylpropyl acetate] |  |  | ≥ 10 | ≥ 20 | 
